From ChEMBL document CHEMBL3124857, “Encoded library technology as a source of hits for the discovery and lead optimization of a potent and selective class of bactericidal direct inhibitors of Mycobacterium tuberculosis InhA” (J Med Chem, 2014)
Values after ≈ are worked out from the molar mass of the structure shown. Active and inactive are the calls of the source. The rule behind the calls is not given here.

Experiments:
[1] = system: Mycobacterium tuberculosis; experiment: Antitubercular activity against Mycobacterium tuberculosis H37Rv infected in C57BL/6 mouse assessed as reduction of bacterial CFU in lung at 500 to 1000 mg/kg, po administered for 8 days measured 24 hrs post last dose; format: functional, organism-based
[2] = Cmax in C57BL/6J mouse at 1000 mg/kg, po measured at 24 hrs; format: ADME, organism-based; set-up: dose 1000 mg/kg, route oral; conditions: in vivo
[3] = Total AUC in C57BL/6J mouse at 1000 mg/kg, po measured at 24 hrs; format: ADME, organism-based; set-up: time AUCmax, dose 1000 mg/kg, route oral; conditions: in vivo
[4] = Oral bioavailability in C57BL/6J mouse at 50 mg/kg; format: ADME, organism-based; conditions: in vivo
[5] = Clearance in C57BL/6J mouse at 4 mg/kg, iv; format: ADME, organism-based; set-up: dose 4 mg/kg, route intravenous; conditions: in vivo
[6] = Volume of distribution in C57BL/6J mouse at 4 mg/kg, iv; format: ADME, organism-based; set-up: dose 4 mg/kg, route intravenous; conditions: in vivo
[7] = AUC (0 to infinity) in C57BL/6J mouse at 50 mg/kg, po; format: ADME, organism-based; set-up: time infinity, dose 50 mg/kg, route oral; conditions: plasma
[8] = Half life in C57BL/6J mouse at 4 mg/kg, iv; format: ADME, organism-based; set-up: dose 4 mg/kg, route intravenous; conditions: in vivo
[9] = Cmax in C57BL/6J mouse at 50 mg/kg, po; format: ADME, organism-based; set-up: dose 50 mg/kg, route oral; conditions: in vivo
[10] = Tmax in C57BL/6J mouse at 50 mg/kg, po; format: ADME, organism-based; set-up: dose 50 mg/kg, route oral; conditions: in vivo
[11] = system: Mycobacterium tuberculosis; experiment: Bactericidal activity against Mycobacterium tuberculosis H37Rv assessed as log reduction of bacterial CFU at 20 times MIC after 1 week relative to control; format: functional
[12] = system: Mycobacterium tuberculosis; experiment: Antitubercular activity against Mycobacterium tuberculosis infected in human THP1 cells assessed as growth inhibition after 5 days by luciferase reporter gene assay; format: functional, THP-1; conditions: 120 h
[13] = Plasma protein binding in human at 1 uM after 4 to 6 hrs by LC-MS/MS analysis; format: ADME, cell-free; conditions: read-out: PPB (converted)
[14] = system: Liver microsome; experiment: Intrinsic clearance in human liver microsomes at 0.5 uM; format: ADME
[15] = Half life in human liver microsomes at 0.5 uM; format: ADME
[16] = Intrinsic clearance in mouse liver microsomes at 0.5 uM; format: ADME, Microsome
[17] = Half life in mouse liver microsomes at 0.5 uM; format: ADME, Microsome
[18] = biological target: Cytochrome P450 3A4 (Homo sapiens, UniProt P08684); experiment: Inhibition of human CYP3A4 by fluorescence assay; format: ADME
Cytochrome P450 3A4, sequence (P08684 whole entry): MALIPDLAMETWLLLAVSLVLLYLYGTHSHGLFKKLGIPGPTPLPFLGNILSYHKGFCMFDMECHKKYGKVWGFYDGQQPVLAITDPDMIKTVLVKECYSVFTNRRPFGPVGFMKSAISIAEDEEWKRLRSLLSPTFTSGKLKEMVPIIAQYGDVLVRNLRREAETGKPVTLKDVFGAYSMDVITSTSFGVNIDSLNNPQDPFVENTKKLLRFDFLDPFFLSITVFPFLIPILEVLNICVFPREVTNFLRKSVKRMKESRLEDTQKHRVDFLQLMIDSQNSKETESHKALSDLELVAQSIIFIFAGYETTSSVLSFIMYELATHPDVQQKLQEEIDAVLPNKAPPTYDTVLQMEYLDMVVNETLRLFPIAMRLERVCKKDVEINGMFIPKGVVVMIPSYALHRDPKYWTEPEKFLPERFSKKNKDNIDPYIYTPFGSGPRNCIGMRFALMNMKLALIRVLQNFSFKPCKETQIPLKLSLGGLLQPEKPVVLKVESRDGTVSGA

[19] = biological target: Cytochrome P450 2D6 (Homo sapiens, UniProt P10635); experiment: Inhibition of human CYP2D6 by fluorescence assay; format: ADME
Cytochrome P450 2D6, sequence (P10635 whole entry): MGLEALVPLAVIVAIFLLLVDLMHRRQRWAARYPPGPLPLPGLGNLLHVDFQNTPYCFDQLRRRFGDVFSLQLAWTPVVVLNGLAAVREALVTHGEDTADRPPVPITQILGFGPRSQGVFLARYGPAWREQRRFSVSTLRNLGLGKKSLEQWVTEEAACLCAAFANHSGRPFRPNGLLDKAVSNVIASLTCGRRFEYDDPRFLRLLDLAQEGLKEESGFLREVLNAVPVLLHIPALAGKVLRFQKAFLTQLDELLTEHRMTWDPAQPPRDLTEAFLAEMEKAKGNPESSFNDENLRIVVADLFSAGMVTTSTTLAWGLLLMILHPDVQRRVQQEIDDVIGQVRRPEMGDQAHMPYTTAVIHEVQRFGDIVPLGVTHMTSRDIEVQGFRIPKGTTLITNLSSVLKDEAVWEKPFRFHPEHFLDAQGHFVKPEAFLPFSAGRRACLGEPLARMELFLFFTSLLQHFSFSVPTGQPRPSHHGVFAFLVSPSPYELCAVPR

[20] = biological target: Cytochrome P450 2C19 (Homo sapiens, UniProt P33261); experiment: Inhibition of human CYP2C19 by fluorescence assay; format: ADME
Cytochrome P450 2C19, sequence (P33261 whole entry): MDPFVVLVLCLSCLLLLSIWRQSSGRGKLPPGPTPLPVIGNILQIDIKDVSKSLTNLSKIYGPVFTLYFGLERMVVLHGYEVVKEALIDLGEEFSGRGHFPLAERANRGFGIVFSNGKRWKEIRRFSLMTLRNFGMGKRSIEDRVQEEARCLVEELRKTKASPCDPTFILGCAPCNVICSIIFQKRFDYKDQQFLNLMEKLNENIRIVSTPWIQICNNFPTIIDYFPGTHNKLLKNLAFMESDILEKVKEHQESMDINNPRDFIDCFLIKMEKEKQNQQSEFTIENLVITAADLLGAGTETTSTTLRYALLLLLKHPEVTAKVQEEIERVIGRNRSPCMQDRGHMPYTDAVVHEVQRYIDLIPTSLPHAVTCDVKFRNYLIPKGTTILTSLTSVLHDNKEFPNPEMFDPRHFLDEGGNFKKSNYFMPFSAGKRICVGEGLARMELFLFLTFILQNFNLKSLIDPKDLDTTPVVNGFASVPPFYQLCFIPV

[21] = biological target: Cytochrome P450 2C9 (Homo sapiens, UniProt P11712); experiment: Inhibition of human CYP2C9 by fluorescence assay; format: ADME
Cytochrome P450 2C9, sequence (P11712 whole entry): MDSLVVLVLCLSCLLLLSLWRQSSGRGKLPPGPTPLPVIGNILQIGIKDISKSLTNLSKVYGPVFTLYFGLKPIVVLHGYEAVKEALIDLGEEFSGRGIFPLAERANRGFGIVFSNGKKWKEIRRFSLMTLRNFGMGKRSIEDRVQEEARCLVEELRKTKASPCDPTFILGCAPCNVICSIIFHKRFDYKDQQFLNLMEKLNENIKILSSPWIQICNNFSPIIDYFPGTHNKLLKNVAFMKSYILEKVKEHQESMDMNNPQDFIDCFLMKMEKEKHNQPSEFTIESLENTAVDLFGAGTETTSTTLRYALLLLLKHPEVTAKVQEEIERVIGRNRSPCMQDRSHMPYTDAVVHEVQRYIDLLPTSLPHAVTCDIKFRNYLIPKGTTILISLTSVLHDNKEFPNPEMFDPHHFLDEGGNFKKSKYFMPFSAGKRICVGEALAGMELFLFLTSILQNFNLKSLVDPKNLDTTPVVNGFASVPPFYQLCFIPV

[22] = biological target: T1, Cytochrome P450 1A2 (Homo sapiens, UniProt P05177); experiment: Inhibition of human CYP1A2 by fluorescence assay; format: ADME
T1 sequence (P05177 whole entry): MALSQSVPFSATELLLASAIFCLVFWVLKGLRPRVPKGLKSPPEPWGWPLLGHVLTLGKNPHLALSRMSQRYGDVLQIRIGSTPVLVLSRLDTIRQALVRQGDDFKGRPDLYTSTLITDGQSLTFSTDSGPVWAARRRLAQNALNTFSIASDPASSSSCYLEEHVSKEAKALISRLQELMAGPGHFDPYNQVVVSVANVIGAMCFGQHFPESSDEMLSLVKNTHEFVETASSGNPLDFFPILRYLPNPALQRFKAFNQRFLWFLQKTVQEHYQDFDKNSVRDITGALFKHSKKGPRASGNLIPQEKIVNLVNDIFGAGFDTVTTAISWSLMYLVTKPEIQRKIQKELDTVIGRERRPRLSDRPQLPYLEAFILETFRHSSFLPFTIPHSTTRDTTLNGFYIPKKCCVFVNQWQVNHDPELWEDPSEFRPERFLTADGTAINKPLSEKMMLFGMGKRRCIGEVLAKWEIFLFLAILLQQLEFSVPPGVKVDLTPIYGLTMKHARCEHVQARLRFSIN

[23] = Kinetic solubility of the compound after 1 hr by CLND assay; format: physicochemical; conditions: read-out: Kinetic_solubility
[24] = system: Mycobacterium tuberculosis; experiment: Antitubercular activity against wild type Mycobacterium tuberculosis H37Rv ATCC 25618 assessed as growth inhibition after 6 days by resazurin dye-based assay; format: functional; conditions: H37Rv ATCC 25618, 144 h
[25] = Plasma protein binding in mouse at 1 uM after 4 to 6 hrs by LC-MS/MS analysis; format: ADME, cell-free; conditions: read-out: PPB (converted)
[26] = Permeability of the compound by artificial membrane permeability assay; format: physicochemical; conditions: PAMPA; read-out: permeability
[27] = Lipophilicity, log D of the compound at pH 7.4 by chromatographic analysis; format: physicochemical; conditions: buffer
[28] = biological target: T2, Enoyl-[acyl-carrier-protein] reductase [NADH] (Mycobacterium tuberculosis, UniProt P9WGR1); experiment: Inhibition of Mycobacterium tuberculosis full length biotinylated InhA (270 amino acids) using DDCoA as substrate assessed as NADH oxidation by fluorimetric analysis
T2 sequence (P9WGR1 whole entry): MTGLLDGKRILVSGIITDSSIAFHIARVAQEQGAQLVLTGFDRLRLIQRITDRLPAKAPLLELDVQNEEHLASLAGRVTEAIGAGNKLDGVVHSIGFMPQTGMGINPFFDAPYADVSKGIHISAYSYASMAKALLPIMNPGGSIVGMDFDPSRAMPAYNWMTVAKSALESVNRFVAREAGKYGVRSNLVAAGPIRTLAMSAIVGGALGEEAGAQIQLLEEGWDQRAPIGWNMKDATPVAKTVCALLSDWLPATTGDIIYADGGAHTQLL

CCc1cc(C(=O)N[C@@H]2C[C@@H](C(N)=O)N(C(=O)c3coc4ccccc34)C2)n(CC)n1
Activity [1]: inactive
Cmax [2]: 23000 ng/mL
AUC at 24 h [3]: 73700 ng·h/mL
bioavailability [4]: 35.6%
clearance [5]: 85.5 mL/min/kg
Vd [6]: 3.68 L/kg
AUC(0-inf) [7]: 3590 ng·h/mL
half-life [8]: 28.2 min
Cmax [9]: 1750 ng/mL
Tmax [10]: 49.8 min
FC [11]: >2
MIC [12]: 0.24 µM (≈ 0.102 µg/mL)
fraction unbound at 1 µM [13]: 0.013
CLH [14]: < 0.3 mL/min/g
half-life at 0.5 µM [15]: > 30 min
CLH [16]: < 0.3 mL/min/g
half-life at 0.5 µM [17]: > 30 min
IC50 [18]: > 50 µM
IC50 [19]: > 50 µM
IC50 [20]: > 50 µM
IC50 [21]: > 50 µM
IC50 [22]: > 50 µM
solubility kinetic at 1 h [23]: > 441 µM
MIC90 [24]: 0.5 µM (≈ 0.212 µg/mL)
fraction unbound at 1 µM [25]: 0.153
Papp [26]: 7.8 ×10⁻⁶ cm/s
chromatographic logD [27]: 2.94
IC50 [28]: 4 nM
